Measured values: patent US6737383B1, “Herbicidal oxadiazolidines” (priority 1999, dated 2004)

Experiments:
wild oat = experiment: Test B pre/postemergence wild oat; type: in vivo, Avena fatua
How it was run: (§1)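 Herbicidal effect was estimated by eye on a ten-point control scale after plants spent twelve to sixteen days in a greenhouse following soil or foliar treatment. Foliar sprays targeted plants at one to four leaves; all doses were formulated in a non-phytotoxic solvent with surfactant.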

wheat = experiment: Test B pre/postemergence wheat; type: in vivo, Triticum aestivum
How it was run: as §1

bedstraw = experiment: Test B pre/postemergence bedstraw; type: in vivo, Galium aparine
How it was run: as §1

bamyardgrass = experiment: Test B flood test barnyardgrass; type: in vivo, Echinochloa crus-galli
How it was run: (§2)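 Flood test on plants grown to the 2-leaf stage; treated plants kept in greenhouse twelve to sixteen days, then visually rated against controls on a 0 (no effect) to 10 (complete control) scale.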

soybean = experiment: Test B pre/postemergence soybean; type: in vivo, Glycine max
How it was run: as §1

rice = experiment: Test B flood test rice; type: in vivo, Oryza sativa
How it was run: as §2

sugar beet = experiment: Test B pre/postemergence sugar beet; type: in vivo, Beta vulgaris
How it was run: as §1

blackgrass = experiment: Test B pre/postemergence blackgrass; type: in vivo, Alopecurus myosuroides
How it was run: as §1

duck salad = experiment: Test B flood test duck salad; type: in vivo, Heteranthera limosa
How it was run: as §2

surinam grass = experiment: Test B pre/postemergence surinam grass; type: in vivo, Brachiaria decumbens
How it was run: as §1

crabgrass = experiment: Test B pre/postemergence crabgrass; type: in vivo, Digitaria sanguinalis
How it was run: as §1

velvetleaf = experiment: Test B pre/postemergence velvetleaf; type: in vivo, Abutilon theophrasti
How it was run: as §1

corn = experiment: Test B pre/postemergence corn; type: in vivo, Zea mays
How it was run: as §1

purple nutsedge = experiment: Test B pre/postemergence purple nutsedge; type: in vivo, Cyperus rotundus
How it was run: as §1

rape = experiment: Test B pre/postemergence rape; type: in vivo, Brassica napus
How it was run: as §1

cocklebur = experiment: Test B pre/postemergence cocklebur; type: in vivo, Xanthium strumarium
How it was run: as §1

smallflower flatsedge = experiment: Test B flood test smallflower flatsedge; type: in vivo, Cyperus difformis
How it was run: as §2

[1] = Preemergence, Rate 62 g/ha, scale of 0 to 10 where 0 is no effect and 10 is complete control
[2] = Preemergence, Rate 250 g/ha, scale of 0 to 10 where 0 is no effect and 10 is complete control
[3] = Preemergence, Rate 500 g/ha, scale of 0 to 10 where 0 is no effect and 10 is complete control
[4] = Rate 62 g/ha, Postemergence, scale 0 to 10 (0 no effect, 10 complete control)
[5] = Rate 125 g/ha, Postemergence, scale of 0 to 10 where 0 is no effect and 10 is complete control
[6] = Rate 250 g/ha, Postemergence, scale of 0 to 10 where 0 is no effect and 10 is complete control
[7] = Rate 500 g/ha, Postemergence, scale 0 to 10, 0 no effect, 10 complete control
[8] = Rate 62 g/ha, headed Pre-emergence (flood test species), scale 0 to 10 (0 no effect, 10 complete control)
[9] = Rate 125 g/ha, Pre-emergence, flood test species, scale 0 to 10 where 0 is no effect and 10 is complete control
[10] = Rate 250 g/ha, Pre-emergence, flood-test species, scale 0 to 10, 0 is no effect, 10 is complete control
[11] = Rate 500 g/ha, Pre-emergence, flood test species, scale 0 to 10 (0 no effect, 10 complete control)

SMILES: CC(C)N(C(=O)n1oc(=O)n(CCCN(C)C)c1=O)c1ccc(F)cc1 [Compound 323]
- Wild oats plant response rating (wild oat; [1]): 0
- Wild oats plant response rating (0 to 10 scale) (wild oat; Preemergence, Rate 125 g/ha): 0
- Wild oats plant response rating (wild oat; [2]): 0
- Wild oats plant response rating (wild oat; [3]): 0
- Wild oats plant response rating (wild oat; [4]): 0
- Wild oats plant response rating (wild oat; [5]): 0
- Plant response rating, Wild oats (wild oat; [6]): 0
- Plant response rating, Wild oats (wild oat; [7]): 0
- Wheat plant response rating (wheat; [1]): 0
- Wheat plant response rating (0 to 10 scale) (wheat; Preemergence, Rate 125 g/ha): 0
- Wheat plant response rating (wheat; [2]): 0
- Wheat plant response rating (wheat; [3]): 0
- Wheat plant response rating (wheat; [4]): 0
- Wheat plant response rating (wheat; [5]): 0
- Plant response rating, Wheat (wheat; [6]): 0
- Plant response rating, Wheat (wheat; [7]): 0
- Bedstraw plant response rating (bedstraw; [1]): 0
- Bedstraw plant response rating (0 to 10 scale) (bedstraw; Preemergence, Rate 125 g/ha): 0
- Bedstraw plant response rating (bedstraw; [2]): 0
- Bedstraw plant response rating (bedstraw; [4]): 0
- Bedstraw plant response rating (bedstraw; [5]): 0
- Barnyardgrass plant response rating (bamyardgrass; [8]): 0
- Barnyardgrass plant response rating (bamyardgrass; [9]): 0
- Barnyardgrass plant response rating (bamyardgrass; [10]): 0
- Barnyardgrass plant response rating (bamyardgrass; [11]): 0
- Soybean plant response rating (soybean; [1]): 0
- Soybean plant response rating (0 to 10 scale) (soybean; Preemergence, Rate 125 g/ha): 0
- Soybean plant response rating (soybean; [2]): 0
- Soybean plant response rating (soybean; [3]): 0
- Soybean plant response rating (soybean; [4]): 0
- Soybean plant response rating (soybean; [5]): 1
- Plant response rating, Soybean (soybean; [6]): 2
- Plant response rating, Soybean (soybean; [7]): 2
- Rice plant response rating (rice; [8]): 0
- Rice plant response rating (rice; [9]): 0
- Rice plant response rating (rice; [10]): 0
- Rice plant response rating (rice; [11]): 0
- Sugarbeets plant response rating (sugar beet; [1]): 0
- Sugarbeets plant response rating (0 to 10 scale) (sugar beet; Preemergence, Rate 125 g/ha): 0
- Sugarbeets plant response rating (sugar beet; [2]): 0
- Sugarbeets plant response rating (sugar beet; [3]): 0
- Sugarbeets plant response rating (sugar beet; [4]): 0
- Sugarbeets plant response rating (sugar beet; [5]): 0
- Plant response rating, Sugarbeets (sugar beet; [6]): 0
- Plant response rating, Sugarbeets (sugar beet; [7]): 0
- Blackgrass plant response rating (blackgrass; [1]): 0
- Blackgrass plant response rating (0 to 10 scale) (blackgrass; Preemergence, Rate 125 g/ha): 0
- Blackgrass plant response rating (blackgrass; [2]): 0
- Blackgrass plant response rating (blackgrass; [3]): 0
- Blackgrass plant response rating (blackgrass; [4]): 0
- Blackgrass plant response rating (blackgrass; [5]): 0
- Plant response rating, Blackgrass (blackgrass; [6]): 0
- Plant response rating, Blackgrass (blackgrass; [7]): 0
- Ducksalad plant response rating (duck salad; [8]): 0
- Ducksalad plant response rating (duck salad; [9]): 0
- Ducksalad plant response rating (duck salad; [10]): 0
- Ducksalad plant response rating (duck salad; [11]): 0
- B. signalgrass plant response rating (surinam grass; [1]): 0
- B. signalgrass plant response rating (0 to 10 scale, 0 is no effect, 10 is complete control) (surinam grass; Preemergence, Rate 125 g/ha): 0
- B. signalgrass plant response rating (surinam grass; [2]): 0
- B. signalgrass plant response rating (surinam grass; [3]): 0
- B. signalgrass plant response rating (surinam grass; [4]): 0
- B. signalgrass plant response rating (surinam grass; [5]): 0
- Plant response rating, B. signalgrass (surinam grass; [6]): 0
- Plant response rating, B. signalgrass (surinam grass; [7]): 0
- Crabgrass plant response rating (crabgrass; [1]): 0
- Crabgrass plant response rating (0 to 10 scale) (crabgrass; Preemergence, Rate 125 g/ha): 0
- Crabgrass plant response rating (crabgrass; [2]): 0
- Crabgrass plant response rating (crabgrass; [3]): 2
- Crabgrass plant response rating (crabgrass; [4]): 0
- Crabgrass plant response rating (crabgrass; [5]): 0
- Plant response rating, Crabgrass (crabgrass; [6]): 0
- Plant response rating, Crabgrass (crabgrass; [7]): 0
- Velvetleaf plant response rating (velvetleaf; [1]): 0
- Velvetleaf plant response rating (0 to 10 scale) (velvetleaf; Preemergence, Rate 125 g/ha): 0
- Velvetleaf plant response rating (velvetleaf; [2]): 0
- Velvetleaf plant response rating (velvetleaf; [3]): 0
- Velvetleaf plant response rating (velvetleaf; [4]): 0
- Velvetleaf plant response rating (velvetleaf; [5]): 0
- Plant response rating, Velvetleaf (velvetleaf; [6]): 0
- Plant response rating, Velvetleaf (velvetleaf; [7]): 0
- Corn plant response rating (corn; [1]): 0
- Corn plant response rating (0 to 10 scale) (corn; Preemergence, Rate 125 g/ha): 0
- Corn plant response rating (corn; [2]): 0
- Corn plant response rating (corn; [3]): 0
- Corn plant response rating (corn; [4]): 0
- Corn plant response rating (corn; [5]): 0
- Plant response rating, Corn (corn; [6]): 0
- Plant response rating, Corn (corn; [7]): 0
- Nutsedge plant response rating (purple nutsedge; [1]): 0
- Nutsedge plant response rating (0 to 10 scale) (purple nutsedge; Preemergence, Rate 125 g/ha): 0
- Nutsedge plant response rating (purple nutsedge; [3]): 0
- Nutsedge plant response rating (purple nutsedge; [4]): 0
- Nutsedge plant response rating (purple nutsedge; [5]): 0
- Plant response rating, Nutsedge (purple nutsedge; [6]): 0
- Plant response rating, Nutsedge (purple nutsedge; [7]): 0
- Rape plant response rating (rape; [1]): 0
- Rape plant response rating (0 to 10 scale) (rape; Preemergence, Rate 125 g/ha): 0
- Rape plant response rating (rape; [2]): 0
- Rape plant response rating (rape; [3]): 0
- Rape plant response rating (rape; [4]): 0
- Rape plant response rating (rape; [5]): 0
- Plant response rating, Rape (rape; [6]): 0
- Plant response rating, Rape (rape; [7]): 0
- Cocklebur plant response rating (cocklebur; [1]): 0
- Cocklebur plant response rating (0 to 10 scale) (cocklebur; Preemergence, Rate 125 g/ha): 0
- Cocklebur plant response rating (cocklebur; [2]): 0
- Cocklebur plant response rating (cocklebur; [3]): 0
- Cocklebur plant response rating (cocklebur; [4]): 0
- Cocklebur plant response rating (cocklebur; [5]): 0
- Plant response rating, Cocklebur (cocklebur; [6]): 0
- Plant response rating, Cocklebur (cocklebur; [7]): 0
- S. Flatsedge plant response rating (smallflower flatsedge; [8]): 0
- S. Flatsedge plant response rating (smallflower flatsedge; [9]): 0
- S. Flatsedge plant response rating (smallflower flatsedge; [10]): 0
- S. Flatsedge plant response rating (smallflower flatsedge; [11]): 0
